Reference: US8603762B2 (priority 2008, dated 2013)
pEC50: −log10 of the molar value. Where two headings read alike, the source gives them in different places.

Key:
Type in all cases: cell-based
[1] = test system: HEK293T Gα16gustducin44 cells (that do not express TAS2R46)
Description: (§1) At day 0, the HEK293T cell line expressing Gα16-gustducin44 and a TAS2R46 bitter taste receptor formed as described in examples 2b or 2c was seeded in antibiotic-free growth medium (standard DMEM with 10% (v/v) heat-inactivated fetal bovine serum, 2 mM L-glutamine[…]) into black wall/clear bottom 96-well plates, coated with poly(ethylenimine) (0.005% v/v) at a concentration of 15,000 cells per well and incubated for 48 hours in humidified atmosphere (37° C., 5% CO2).
(§2) At the time of the assay, the growth medium was discarded and the cells were in humidified atmosphere (37° C., 5% CO2) for 1 hour with 50 μl of loading buffer consisting of 1.5 μM Fluo-4 AM and […] probenicid (Sigma-Aldrich, St. Louis, Mo., US) in DMEM.
(§3) Afterwards, the 96-well plate was washed 5 times with 100 μl of assay buffer (130 mM NaCl, 5 mM KCl, 10 mM HEPES, 2 mM CaCl2, and 5 mM dextrose, pH 7.4) per well, using an automated plate washer (BioTek). The plate was further incubated for 30 minutes at room temperature in the dark to allow for complete de-esterification of the Fluo-4. Afterwards the plate was washed 5 times with 100 μl of assay buffer per well, and reconstituted with 100 μl of assay buffer per well.
(§4) For assay reading, the plate was placed in a Fluorometric Imaging Plate Reader (FLIPR) (FLIPR-TETRA™, Molecular Devices, Sunnyvale, Calif., US), and receptor activation was initiated by addition of 20 μl of a tenfold concentrated agonist stock solution (to give the desired agonist end concentration when added to the 180 microliter assay buffer volume), which was prepared in assay buffer.
(§5) Fluorescence was continuously monitored for 20 seconds to give a signal baseline (averaged to give F0) prior to agonist addition and for 120 seconds after agonist addition. The change in signal divided by F0 gives ΔF/F0 indicated in the table, with ΔF being the maximum signal occurring within the 120 seconds minus the minimum signal (occurring within the 120 seconds after agonist addition.
(§6) The obtained calcium signals were corrected for the response of cells expressing only the G Protein α subunit (Gα16-gustducin44) and normalized to the fluorescence of cells prior to the stimulus using ΔF/F0 (Fmax−Fmin/F0).

human TAS2R46 [2] = molecular target: T1, human TAS2R46 (Homo sapiens, UniProt P59540)
T1 construct: RSS tag (first 45 amino acids of rat somatostatin receptor subtype 3, plus EcoRI site residues) (N); expressed in transfected cells
T1 sequence (P59540 with tags, fused parts or gaps): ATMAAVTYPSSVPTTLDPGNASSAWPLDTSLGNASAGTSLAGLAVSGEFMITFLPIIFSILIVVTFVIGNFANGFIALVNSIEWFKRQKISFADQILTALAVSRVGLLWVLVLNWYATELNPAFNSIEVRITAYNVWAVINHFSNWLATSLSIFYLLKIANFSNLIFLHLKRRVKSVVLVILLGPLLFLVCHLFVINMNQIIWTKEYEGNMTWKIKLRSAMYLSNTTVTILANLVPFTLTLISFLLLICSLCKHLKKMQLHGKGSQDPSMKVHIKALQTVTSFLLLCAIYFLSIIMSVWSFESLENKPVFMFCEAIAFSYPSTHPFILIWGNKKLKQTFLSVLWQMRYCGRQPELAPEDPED
Description: as §1, §2, §3, §4, §5, §6

human TAS2R46 [3] = molecular target: T1, human TAS2R46; experiment: Fluo-4 calcium assay, HEK293T/Gα16-gustducin44 cells transiently expressing TAS2R46
Description: In a second tube, 0.3 μl of Lipofectamine 2000 was diluted in 12.5 μl of DMEM and incubated for 5 min at room temperature. After the 5 min, both solutions were mixed and incubated for 20 min at RT. […] This mixture was then replaced with an antibiotic-free, serum-containing DMEM. […]
as §4
Fluorescence was continuously monitored for 20 seconds to give a signal baseline (averaged to give F0) prior to agonist addition and for 120 seconds after agonist addition. […]
as §6

[4] = test system: more than 15 human TAS2Rs; experiment: Activation of other human TAS2Rs; settings: more than 15 human TAS2Rs tested

**Q.** What does the source list for `O=C1C[C@@H]2OCC=C3CN4CC[C@]56c7ccccc7N1[C@H]5[C@H]2[C@H]3C[C@H]46` [strychnine]?
**A.** Neg. Control ΔF/F0 ([1]; strychnine 0.977 μM, cells without TAS2R46): 0.060; Neg. Control ΔF/F0 ([1]; strychnine 1.953 μM, cells without TAS2R46): 0.065; Neg. Control ΔF/F0 ([1]; strychnine 3.906 μM, cells without TAS2R46): 0.071; Neg. Control ΔF/F0 ([1]; strychnine 7.813 μM, cells without TAS2R46): 0.070; Neg. Control ΔF/F0 ([1]; strychnine 15.63 μM, cells without TAS2R46): 0.063; Neg. Control ΔF/F0 ([1]; strychnine 31.25 μM, cells without TAS2R46): 0.088; Neg. Control ΔF/F0 ([1]; strychnine 62.50 μM, cells without TAS2R46): 0.091; Neg. Control ΔF/F0 ([1]; strychnine 125.0 μM, cells without TAS2R46): 0.088; Neg. Control ΔF/F0 ([1]; strychnine 250.0 μM, cells without TAS2R46): 0.181

**Q.** How did the “Neg. Control ΔF/F0” value ([1]; dextromethorphan 0.254 μM, cells expressing only Gα16gustducin44) turn out when `COc1ccc2c(c1)[C@]13CCCC[C@@H]1[C@H](C2)N(C)CC3` [dextromethorphan] was run?
**A.** 0.050

**Q.** What about the “Neg. Control ΔF/F0” value ([1]; dextromethorphan 0.508 μM, cells expressing only Gα16gustducin44) of the same compound?
**A.** 0.044

**Q.** What about the “Neg. Control ΔF/F0” value ([1]; dextromethorphan 1.016 μM, cells expressing only Gα16gustducin44) of the same compound?
**A.** 0.053

**Q.** And the “Neg. Control ΔF/F0” value ([1]; dextromethorphan 2.031 μM, cells expressing only Gα16gustducin44)?
**A.** 0.038

**Q.** What about the “Neg. Control ΔF/F0” value ([1]; dextromethorphan 4.063 μM, cells expressing only Gα16gustducin44) of the same compound?
**A.** 0.041

**Q.** And the “Neg. Control ΔF/F0” value ([1]; dextromethorphan 8.125 μM, cells expressing only Gα16gustducin44)?
**A.** 0.044

**Q.** And the “Neg. Control ΔF/F0” value ([1]; dextromethorphan 16.250 μM, cells expressing only Gα16gustducin44)?
**A.** 0.067

**Q.** And the “Neg. Control ΔF/F0” value ([1]; dextromethorphan 65.000 μM, cells expressing only Gα16gustducin44)?
**A.** 0.312

**Q.** And the “change in signal in the negative control (in words)” value ([1]; host cells expressing only Gα16-gustducin44)?
**A.** No significant change

**Q.** And the “calcium signaling upon addition of agonist (in words)” value (human TAS2R46 [2]; cells stably expressing human TAS2R46)?
**A.** significant increase in calcium signaling

**Q.** What about the pEC50 (human TAS2R46 [2]; stable cell line, nonlinear regression of ΔF/F0, read-out: calculated EC50 value for TAS2R46) of the same compound?
**A.** 4.51

**Q.** And the “calcium signaling upon addition of agonist (in words)” value (human TAS2R46 [3])?
**A.** significant concentration-dependent increase in calcium signaling

**Q.** What about the “activation of other human TAS2Rs (in words)” value [4] of the same compound?
**A.** not to be activated
